Source: patent US20090304692A1, “TRIAZINE COMPOUNDS AS PI3 KINASE AND MTOR INHIBITORS” (Wyeth, priority 2008, published 2009)
Where “and” joins values, the source holds several entries; their conditions need not be identical. Identical values can stand only once. Like-named read-outs stand apart in the source and are kept apart here.

Experiments:
[1] = test system: human breast MDA-MB-361 tumor cell line; test: In vitro cell culture growth assay (MTS), MDA-MB-361; assay type: cell-based
PI3K-α = PI3K-α (Homo sapiens, UniProt P42336); test: PI3K-alpha fluorescence polarization assay; conditions: read-out: IC50 PI3Kα
[2] = test system: human prostate PC3-mm2 tumor cell line; test: In vitro cell culture growth assay (MTS), PC3-mm2; assay type: cell-based
PI3K-γ = PI3K-γ (Homo sapiens, UniProt P48736); test: PI3K-gamma fluorescence polarization assay; conditions: read-out: IC50 PI3Kγ
Human mTOR (FLAG-TOR) = Human mTOR (FLAG-TOR) (Homo sapiens, UniProt P42345); test: mTOR kinase assay (DELFIA format, purified enzyme); assay type: biochemical
[3] = Homo sapiens, MDA-MB-361, 72 h, read-out: IC50 MDA-MB-361, MTS cell growth assay, three days after drug treatment
[4] = Homo sapiens, PC3MM2, 72 h, read-out: IC50 PC3-mm2, MTS cell growth assay, three days after drug treatment
[5] = Homo sapiens, MDA-MB-361, 72 h, MTS cell growth assay, three days after drug treatment, read-out: IC50 MDA-MB-361
[6] = Homo sapiens, PC3MM2, 72 h, MTS cell growth assay, three days after drug treatment, read-out: IC50 PC3-mm2
[7] = Homo sapiens, MDA-MB-361, 72 h, MTS cell growth assay, three days after drug treatment, MDA-MB-361 cells, read-out: IC50 MDA-MB-361
[8] = Homo sapiens, PC3MM2, 72 h, MTS cell growth assay, three days after drug treatment, PC3-mm2 cells, read-out: IC50 PC3-mm2
[9] = Homo sapiens, MDA-MB-361, 72 h, read-out: IC50 MDA-MB-361
[10] = Homo sapiens, PC3MM2, 72 h, read-out: IC50 PC3-mm2
[11] = Homo sapiens, 72 h, MTS cell growth assay, three days after drug treatment, MDA-MB-361 cells, read-out: IC50 MDA-MB-361

Chain of PI3K-γ (P48736 whole entry, species assumed): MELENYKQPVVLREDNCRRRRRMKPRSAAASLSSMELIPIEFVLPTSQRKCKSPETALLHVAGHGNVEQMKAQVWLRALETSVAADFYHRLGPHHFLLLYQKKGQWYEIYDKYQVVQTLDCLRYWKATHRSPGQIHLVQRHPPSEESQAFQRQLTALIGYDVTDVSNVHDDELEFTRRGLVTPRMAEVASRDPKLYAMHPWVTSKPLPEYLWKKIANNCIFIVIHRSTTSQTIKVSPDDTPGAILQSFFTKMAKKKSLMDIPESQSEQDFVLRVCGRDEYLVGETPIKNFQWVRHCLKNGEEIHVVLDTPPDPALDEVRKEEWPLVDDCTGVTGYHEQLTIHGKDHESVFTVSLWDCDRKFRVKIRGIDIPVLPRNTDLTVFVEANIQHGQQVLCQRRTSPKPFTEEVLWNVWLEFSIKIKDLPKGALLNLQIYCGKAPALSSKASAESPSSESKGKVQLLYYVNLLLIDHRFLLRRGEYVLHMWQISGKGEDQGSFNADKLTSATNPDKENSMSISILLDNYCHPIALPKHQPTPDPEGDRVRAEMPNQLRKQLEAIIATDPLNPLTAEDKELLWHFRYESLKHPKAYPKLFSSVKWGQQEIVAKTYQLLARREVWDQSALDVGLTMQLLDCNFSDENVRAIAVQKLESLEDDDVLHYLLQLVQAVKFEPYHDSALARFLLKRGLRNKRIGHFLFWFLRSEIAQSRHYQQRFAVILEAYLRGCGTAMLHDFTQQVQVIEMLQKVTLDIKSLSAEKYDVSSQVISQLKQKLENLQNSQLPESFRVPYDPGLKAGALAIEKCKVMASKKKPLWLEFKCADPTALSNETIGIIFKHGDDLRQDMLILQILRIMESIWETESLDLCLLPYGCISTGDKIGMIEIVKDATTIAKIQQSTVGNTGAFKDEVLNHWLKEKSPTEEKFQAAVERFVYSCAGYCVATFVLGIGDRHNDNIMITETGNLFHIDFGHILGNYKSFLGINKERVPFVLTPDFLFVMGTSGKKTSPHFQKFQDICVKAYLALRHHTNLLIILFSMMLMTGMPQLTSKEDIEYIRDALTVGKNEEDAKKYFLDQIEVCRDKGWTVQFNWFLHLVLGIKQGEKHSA
Chain of Human mTOR (FLAG-TOR) (P42345 1360-2549 limits assumed): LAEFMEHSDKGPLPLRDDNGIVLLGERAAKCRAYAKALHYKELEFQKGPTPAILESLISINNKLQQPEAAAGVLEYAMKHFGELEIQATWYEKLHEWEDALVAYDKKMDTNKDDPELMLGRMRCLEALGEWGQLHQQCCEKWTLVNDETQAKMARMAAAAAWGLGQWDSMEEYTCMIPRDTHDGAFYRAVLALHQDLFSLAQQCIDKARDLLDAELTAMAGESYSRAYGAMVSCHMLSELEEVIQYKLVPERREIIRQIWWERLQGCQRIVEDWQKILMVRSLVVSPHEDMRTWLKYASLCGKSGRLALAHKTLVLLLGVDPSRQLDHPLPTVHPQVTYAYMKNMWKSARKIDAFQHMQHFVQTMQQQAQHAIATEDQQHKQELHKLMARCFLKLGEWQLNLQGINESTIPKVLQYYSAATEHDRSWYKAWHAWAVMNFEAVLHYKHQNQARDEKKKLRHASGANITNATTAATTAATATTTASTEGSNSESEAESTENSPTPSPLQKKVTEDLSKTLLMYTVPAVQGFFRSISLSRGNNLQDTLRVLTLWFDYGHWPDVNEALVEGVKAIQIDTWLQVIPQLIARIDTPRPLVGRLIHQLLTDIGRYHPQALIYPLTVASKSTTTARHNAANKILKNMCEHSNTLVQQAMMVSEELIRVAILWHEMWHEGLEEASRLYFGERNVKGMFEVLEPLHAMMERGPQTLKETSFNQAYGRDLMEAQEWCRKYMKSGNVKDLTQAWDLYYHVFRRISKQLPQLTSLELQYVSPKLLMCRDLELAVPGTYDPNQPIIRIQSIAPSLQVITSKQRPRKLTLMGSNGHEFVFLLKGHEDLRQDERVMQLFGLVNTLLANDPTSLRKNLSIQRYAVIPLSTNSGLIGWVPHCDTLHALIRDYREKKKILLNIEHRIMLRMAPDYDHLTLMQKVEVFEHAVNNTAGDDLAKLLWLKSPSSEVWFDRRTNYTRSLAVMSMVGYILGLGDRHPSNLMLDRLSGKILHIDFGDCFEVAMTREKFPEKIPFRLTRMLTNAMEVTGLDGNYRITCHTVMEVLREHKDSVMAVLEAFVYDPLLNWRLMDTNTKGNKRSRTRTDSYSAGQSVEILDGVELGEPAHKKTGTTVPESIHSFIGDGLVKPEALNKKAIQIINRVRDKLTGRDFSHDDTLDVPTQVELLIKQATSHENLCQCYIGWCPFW
Chain of PI3K-α (P42336 whole entry, species assumed): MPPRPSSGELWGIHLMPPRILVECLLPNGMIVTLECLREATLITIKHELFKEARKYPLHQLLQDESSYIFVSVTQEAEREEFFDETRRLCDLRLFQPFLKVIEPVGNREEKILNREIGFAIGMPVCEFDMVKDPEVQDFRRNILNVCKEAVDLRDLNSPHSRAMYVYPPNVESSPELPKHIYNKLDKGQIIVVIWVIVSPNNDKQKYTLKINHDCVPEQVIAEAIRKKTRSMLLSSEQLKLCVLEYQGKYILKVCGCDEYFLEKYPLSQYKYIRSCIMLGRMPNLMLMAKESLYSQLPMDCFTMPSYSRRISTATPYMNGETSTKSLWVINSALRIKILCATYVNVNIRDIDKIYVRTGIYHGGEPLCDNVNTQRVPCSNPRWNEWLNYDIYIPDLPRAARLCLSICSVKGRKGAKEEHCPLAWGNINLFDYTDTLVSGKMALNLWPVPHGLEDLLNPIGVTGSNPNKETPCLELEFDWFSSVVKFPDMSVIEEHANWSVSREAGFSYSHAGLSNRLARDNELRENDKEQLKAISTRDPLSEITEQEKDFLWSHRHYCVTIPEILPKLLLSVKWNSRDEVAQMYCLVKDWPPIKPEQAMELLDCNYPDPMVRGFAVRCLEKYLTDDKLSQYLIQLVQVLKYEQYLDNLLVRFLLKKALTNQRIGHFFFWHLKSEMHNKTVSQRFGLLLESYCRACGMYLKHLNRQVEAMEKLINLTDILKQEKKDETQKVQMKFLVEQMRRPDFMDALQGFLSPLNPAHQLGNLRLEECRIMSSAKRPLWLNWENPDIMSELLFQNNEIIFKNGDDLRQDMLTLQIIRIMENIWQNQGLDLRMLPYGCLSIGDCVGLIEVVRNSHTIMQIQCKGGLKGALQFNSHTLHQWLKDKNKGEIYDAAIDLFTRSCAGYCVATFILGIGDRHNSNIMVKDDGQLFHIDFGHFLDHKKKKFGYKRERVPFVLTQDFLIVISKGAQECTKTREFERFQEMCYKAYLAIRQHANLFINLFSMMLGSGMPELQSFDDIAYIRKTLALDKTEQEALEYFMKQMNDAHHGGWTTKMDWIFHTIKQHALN
Chain of PI3K-α (P27986 whole entry partner, species assumed): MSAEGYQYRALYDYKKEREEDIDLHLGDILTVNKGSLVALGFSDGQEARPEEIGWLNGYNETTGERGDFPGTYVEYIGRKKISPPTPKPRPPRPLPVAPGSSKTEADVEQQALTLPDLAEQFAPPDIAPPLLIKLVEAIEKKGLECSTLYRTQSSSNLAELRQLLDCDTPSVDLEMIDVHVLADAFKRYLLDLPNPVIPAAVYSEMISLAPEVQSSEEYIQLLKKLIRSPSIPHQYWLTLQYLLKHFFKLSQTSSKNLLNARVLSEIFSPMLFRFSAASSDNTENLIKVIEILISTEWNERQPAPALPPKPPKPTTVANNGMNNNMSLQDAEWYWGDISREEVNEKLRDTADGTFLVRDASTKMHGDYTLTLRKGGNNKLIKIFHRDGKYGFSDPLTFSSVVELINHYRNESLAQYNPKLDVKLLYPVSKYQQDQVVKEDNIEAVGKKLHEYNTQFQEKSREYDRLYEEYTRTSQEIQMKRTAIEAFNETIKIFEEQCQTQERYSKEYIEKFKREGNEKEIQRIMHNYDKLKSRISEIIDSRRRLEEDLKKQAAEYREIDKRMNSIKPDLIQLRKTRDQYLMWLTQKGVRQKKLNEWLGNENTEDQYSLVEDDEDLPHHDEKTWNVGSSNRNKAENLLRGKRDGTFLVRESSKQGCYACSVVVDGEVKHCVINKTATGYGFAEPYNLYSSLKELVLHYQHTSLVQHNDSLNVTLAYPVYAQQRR

## 1-{4-[4-(4-methylphenyl)-6-morpholin-4-yl-1,3,5-triazin-2-yl]phenyl}-3-[4-(pyrrolidin-1-ylcarbonyl)phenyl]urea [Example 553]
[1]; MTS cell growth assay, three days after drug treatment, MDA-MB-361 cells, read-out: IC50 MDA-MB-361
  IC50: 113 nM
PI3K-α
  IC50: 12.5 nM
[2]; MTS cell growth assay, three days after drug treatment, PC3-mm2 cells, read-out: IC50 PC3-mm2
  IC50: 522 nM
PI3K-γ
  IC50: 72 nM
Human mTOR (FLAG-TOR); read-out: IC50 mTOR
  IC50: 19.5 nM

## O=C(Nc1ccncc1)Nc1ccc(-c2nc(N3CCOCC3)nc(N3CCOCC3)n2)cc1 [Example 1, 1-[4-(4,6-dimorpholin-4-yl-1,3,5-triazin-2-yl)phenyl]-3-pyridin-4-ylurea]
[1]; [3]
  IC50: 45 nM
PI3K-α
  IC50: 3 nM
[2]; [4]
  IC50: 43 nM
PI3K-γ
  IC50: 29 nM
Human mTOR (FLAG-TOR); read-out: IC50 mTOR
  IC50: 1.3 nM

## O=C(Nc1ccc(-c2nc(N3CCOCC3)nc(N3CCOCC3)n2)cc1)Nc1cccnc1 [Example 2, 1-[4-(4,6-dimorpholin-4-yl-1,3,5-triazin-2-yl)phenyl]-3-pyridin-3-ylurea]
[1]; [5]
  IC50: 45 nM
[2]; [6]
  IC50: 43 nM
Human mTOR (FLAG-TOR); read-out: IC50 mTOR
  IC50: 1 nM

## O=C(Nc1ccc(-c2nc(N3CCOCC3)nc(N3CCOCC3)n2)cc1)Nc1cccs1 [Example 4, 1-[4-(4,6-dimorpholin-4-yl-1,3,5-triazin-2-yl)phenyl]-3-thiophen-2-ylurea]
[1]; [5]
  IC50: 45 nM
[2]; [6]
  IC50: 43 nM
Human mTOR (FLAG-TOR); read-out: IC50 mTOR
  IC50: 1.7 nM

## O=C(Nc1ccc(Cl)cc1)Nc1ccc(-c2nc(N3CCOCC3)nc(N3CCOCC3)n2)cc1 [Example 8, 1-(4-chlorophenyl)-3-[4-(4,6-dimorpholin-4-yl-1,3,5-triazin-2-yl)phenyl]-urea]
[1]; MTS cell growth assay, three days after drug treatment, listed as 10, read-out: IC50 MDA-MB-361
  IC50: 2710 nM
PI3K-α
  IC50: 20 nM
PI3K-α; listed as 10
  IC50: 75 nM
[2]; MTS cell growth assay, three days after drug treatment, listed as 10, read-out: IC50 PC3-mm2
  IC50: 1780 nM
Human mTOR (FLAG-TOR); read-out: IC50 mTOR
  IC50: 8 nM and 68 nM

## O=C(Nc1ccc(-c2nc(N3CCOCC3)nc(N3CCOCC3)n2)cc1)Nc1ccc(F)cc1F [Example 11, (2,4-difluorophenyl)-3-[4-(4,6-dimorpholin-4-yl-1,3,5-triazin-2-yl)phenyl]urea]
[1]; [3]
  IC50: 794 nM
[2]; [4]
  IC50: 5630 nM
Human mTOR (FLAG-TOR); read-out: IC50 mTOR
  IC50: 9.25 nM

## CCN(CC)CCOC(=O)c1ccc(NC(=O)Nc2ccc(-c3nc(N4CCOCC4)nc(N4C5CCC4COC5)n3)cc2)cc1 [Example 40, 2-(diethylamino)ethyl 4-[({4-[4-morpholin-4-yl-6-(3-oxa-8-azabicyclo[3.2.1]oct-8-yl)-1,3,5-triazin-2-yl]phenyl}carbamoyl)amino]benzoate]
[1]; [7]
  IC50: < 30 nM
[1]; [5]
  IC50: < 30 nM
[2]; [8]
  IC50: 62 nM
[2]; [6]
  IC50: 62 nM
Human mTOR (FLAG-TOR); read-out: IC50 mTOR
  IC50: 0.66 nM

## CC(O)c1ccc(NC(=O)Nc2ccc(-c3nc(N4CCOCC4)nc(N4CCOCC4)n3)cc2)cc1 (stereo not drawn) [Example 52, 1-[4-(4,6-dimorpholin-4-yl-1,3,5-triazin-2-yl)phenyl]-3-[4-(1-hydroxyethyl)phenyl]urea]
[1]; [5]
  IC50: < 30 nM
[2]; [6]
  IC50: 49 nM
Human mTOR (FLAG-TOR); read-out: IC50 mTOR
  IC50: 1 nM

## CC(C)Oc1nc(-c2ccc(NC(=O)Nc3ccc(C(=O)NC4CCN(C)CC4)cc3)cc2)nc(N2CCOCC2)n1 [Example 97, 4-({[4-(4-isopropoxy-6-morpholin-4-yl-1,3,5-triazin-2-yl)phenyl]carbamoyl}amino)-N-(1-methylpiperidin-4-yl)benzamide]
[1]; [9]
  IC50: < 30 nM
[2]; [10]
  IC50: 52 nM
Human mTOR (FLAG-TOR); read-out: IC50 mTOR
  IC50: 1.1 nM and 1.2 nM

## CC(C)Oc1nc(-c2ccc(NC(=O)Nc3ccc(C(=O)NCCN(C)C)cc3)cc2)nc(N2CCOCC2)n1 [Example 187, N-[2-(dimethylamino)ethyl]-4-({[4-(4-isopropoxy-6-morpholin-4-yl-1,3,5-triazin-2-yl)phenyl]carbamoyl}amino)benzamide]
[1]; [9]
  IC50: 11 nM
PI3K-α
  IC50: 3 nM
[2]; [10]
  IC50: 41 nM
Human mTOR (FLAG-TOR); IC50 mTOR
  IC50: 3.5 nM

## CN(C)CCN(C)C(=O)c1ccc(NC(=O)Nc2ccc(-c3nc(N4CCC4)nc(N4CCOCC4)n3)cc2)cc1 [Example 197, 4-({[4-(4-azetidin-1-yl-6-morpholin-4-yl-1,3,5-triazin-2-yl)phenyl]carbamoyl}amino)-N-[2-(dimethylamino)ethyl]-N-methylbenzamide]
[1]; [5]
  IC50: 17 nM
[2]; [6]
  IC50: 49 nM
Human mTOR (FLAG-TOR); read-out: IC50 mTOR
  IC50: 24 nM

## CCN(CC)C(=O)[n+]1ccc(NC(=O)Nc2ccc(-c3nc(N4CCOCC4)nc(N4C5CCC4COC5)n3)cc2)cc1 [Example 201, 1-(diethylcarbamoyl)-4-[({4-[4-morpholin-4-yl-6-(3-oxa-8-azabicyclo[3.2.1]oct-8-yl)-1,3,5-triazin-2-yl]phenyl}carbamoyl)amino]pyridinium]
[1]; [5]
  IC50: 29 nM
[2]; [8]
  IC50: 44 nM
[2]; [6]
  IC50: 44 nM
Human mTOR (FLAG-TOR); read-out: IC50 mTOR
  IC50: 0.9 nM

## COc1nc(-c2ccc(NC(=O)Nc3ccc(C(=O)N(C)CCN(C)C)cc3)cc2)nc(N2CCOCC2)n1 [Example 243, N-[2-(dimethylamino)ethyl]-4-({[4-(4-methoxy-6-morpholin-4-yl-1,3,5-triazin-2-yl)phenyl]carbamoyl}amino)-N-methylbenzamide]
[1]; [9]
  IC50: 15 nM
PI3K-α
  IC50: 1 nM
PI3K-α; listed as 720
  IC50: 0.4 nM
[2]; [10]
  IC50: 34 nM
Human mTOR (FLAG-TOR); IC50 mTOR
  IC50: 7.7 nM

## COc1nc(-c2ccc(NC(=O)Nc3ccc(C(=O)NCCN(C)C)cc3)cc2)nc(N2CCOCC2)n1 [Example 244, N-[2-(dimethylamino)ethyl]-4-({[4-(4-methoxy-6-morpholin-4-yl-1,3,5-triazin-2-yl)phenyl]carbamoyl}amino)benzamide]
[1]; [9]
  IC50: < 31 nM
PI3K-α
  IC50: 1 nM
PI3K-α; listed as 721
  IC50: 0.6 nM
[2]; [10]
  IC50: 71 nM
Human mTOR (FLAG-TOR); IC50 mTOR
  IC50: 5.1 nM and 5.65 nM

## CC(C)N1CCN(C(=O)c2ccc(NC(=O)Nc3ccc(-c4nc(N5CCC5)nc(N5CCOCC5)n4)cc3)cc2)CC1 [Example 492, 1-[4-(4-azetidin-1-yl-6-morpholin-4-yl-1,3,5-triazin-2-yl)phenyl]-3-(4-{[4-(1-methylethyl)piperazin-1-yl]carbonyl}phenyl)urea]
[1]; [7]
  IC50: 26 nM
[2]; [8]
  IC50: 57 nM
PI3K-γ
  IC50: 35 nM
Human mTOR (FLAG-TOR); read-out: IC50 mTOR
  IC50: 18 nM

## O=C(Nc1ccc(C(=O)NCCN2CCCCC2)cc1)Nc1ccc(-c2nc(O[C@H]3CCOC3)nc(N3CCOCC3)n2)cc1 [Example 520, 4-{[(4-{4-morpholin-4-yl-6-[(3S)-tetrahydrofuran-3-yloxy]-1,3,5-triazin-2-yl}phenyl)carbamoyl]amino}-N-(2-piperidin-1-ylethyl)benzamide]
[1]; [9]
  IC50: 5 nM
PI3K-α
  IC50: 1.4 nM
[2]; [8]
  IC50: 18 nM
Human mTOR (FLAG-TOR); IC50 mTOR
  IC50: 0.38 nM

## CN1CCN(C(=O)c2ccc(NC(=O)Nc3ccc(-c4nc(N5CCCOCC5)nc(N5CCOCC5)n4)cc3)cc2)CC1 [Example 573, 1-{4-[(4-methylpiperazin-1-yl)carbonyl]phenyl}-3-{4-[4-morpholin-4-yl-6-(1,4-oxazepan-4-yl)-1,3,5-triazin-2-yl]phenyl}urea]
[1]; [7]
  IC50: 99 nM
[2]; [8]
  IC50: 206 nM
PI3K-γ
  IC50: 64 nM
Human mTOR (FLAG-TOR); read-out: IC50 mTOR
  IC50: 4 nM

## C[C@H]1COCCN1c1nc(-c2ccc(NC(=O)Nc3ccc(C(=O)NCCN4CCCC4)cc3)cc2)nc(N2CCOCC2)n1 [Example 622, 4-{[(4-{4-[(3S)-3-methylmorpholin-4-yl]-6-morpholin-4-yl-1,3,5-triazin-2-yl}phenyl)carbamoyl]amino}-N-(2-pyrrolidin-1-ylethyl)benzamide]
[1]; [11]
  IC50: 5 nM
PI3K-α
  IC50: 3 nM
[2]; [8]
  IC50: 25 nM
PI3K-γ
  IC50: 50.5 nM

## C[C@@H]1COCCN1c1nc(-c2ccc(NC(=O)Nc3ccc(C(=O)NCCN(C)C)cc3)cc2)nc(N2CCOC[C@@H]2C)n1 [Example 634, N-[2-(dimethylamino)ethyl]-4-{[(4-{4-[(3R)-3-methylmorpholin-4-yl]-6-[(3S)-3-methylmorpholin-4-yl]-1,3,5-triazin-2-yl}phenyl)carbamoyl]amino}benzamide]
[1]; [11]
  IC50: 5 nM
PI3K-α
  IC50: 6 nM
[2]; [8]
  IC50: 16 nM
PI3K-γ
  IC50: 122 nM

## O=C(Nc1ccc(C(=O)NCCN2CCOCC2)cc1)Nc1ccc(-c2nc(N3CCOCC3)nc(N3C4CCC3COC4)n2)cc1 [Example 702, N-(2-morpholin-4-ylethyl)-4-[({4-[4-morpholin-4-yl-6-(3-oxa-8-azabicyclo[3.2.1]oct-8-yl)-1,3,5-triazin-2-yl]phenyl}carbamoyl)amino]benzamide]
[1]; [11]
  IC50: 4 nM
[2]; [8]
  IC50: 14 nM
PI3K-γ
  IC50: 126 nM
Human mTOR (FLAG-TOR); read-out: IC50 mTOR
  IC50: 0.555 nM

## CC(C)N1CCN(C(=O)c2ccc(NC(=O)Nc3ccc(-c4nc(N5CCOCC5)nc(N5C6CCCC5COC6)n4)cc3)cc2)CC1 [Example 805, 1-(4-{[4-(1-methylethyl)piperazin-1-yl]carbonyl}phenyl)-3-{4-[4-morpholin-4-yl-6-(3-oxa-9-azabicyclo[3.3.1]non-9-yl)-1,3,5-triazin-2-yl]phenyl}urea]
[1]; Homo sapiens, MDA-MB-361, 72 h, MDA-MB-361 cells, MTS, three days after drug treatment, read-out: IC50 MDA-MB-361
  IC50: 3 nM
[2]; Homo sapiens, PC3MM2, 72 h, PC3-mm2 cells, MTS, three days after drug treatment, read-out: IC50 PC3-mm2
  IC50: 13 nM
PI3K-γ
  IC50: 64 nM
Human mTOR (FLAG-TOR); read-out: IC50 mTOR
  IC50: 0.415 nM
